Results from US8119624B2, “Fused phenyl amido heterocyclic compounds” (Pfizer Inc., priority 2006, dated 2012).
Read-outs that look alike come from different tables or passages of the source.

Target: T1, Full-length glucokinase (beta cell isoform) (Homo sapiens, UniProt P35557)
T1 construct: Full-length glucokinase (beta cell isoform) was His-tagged at N-terminus; His tag (N); made in house
T1 sequence (P35557 1-465): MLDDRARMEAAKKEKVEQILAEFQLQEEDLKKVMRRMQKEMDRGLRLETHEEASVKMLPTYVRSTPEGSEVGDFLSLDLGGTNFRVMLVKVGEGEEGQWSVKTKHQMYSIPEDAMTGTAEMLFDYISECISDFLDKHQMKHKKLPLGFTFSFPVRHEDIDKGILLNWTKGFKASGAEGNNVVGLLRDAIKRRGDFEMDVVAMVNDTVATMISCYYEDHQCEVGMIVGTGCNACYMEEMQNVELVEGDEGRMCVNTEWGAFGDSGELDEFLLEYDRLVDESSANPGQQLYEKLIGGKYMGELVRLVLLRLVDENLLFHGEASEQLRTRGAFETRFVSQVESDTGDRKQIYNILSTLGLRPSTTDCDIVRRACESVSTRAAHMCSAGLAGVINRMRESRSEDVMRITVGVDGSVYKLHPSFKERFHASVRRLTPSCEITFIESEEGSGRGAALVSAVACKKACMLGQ
Experiment: Glucokinase biochemical assay (PK/LDH-coupled, NADH depletion at 340 nm): % activation, EC50, % max activation
Conditions: 5 mM glucose; for activation at 10 µM: read-out: % Activation at 10 uM; for EC50: read-out: EC50; for Emax / % Max Activation: fitted maximum activation; for Emax: read-out: % Max Activation
How it was run: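 Activation expressed as (Va/Vo−1)×100, where initial rates with and without compound come from NADH depletion at 340 nm over 200–900 s. Enzyme is His-tagged human beta-cell GK, full length, run at room temperature in HEPES buffer with 1 mM ATP and 5 mM glucose. DMSO 1%.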

[1] = 10 uM compound, % Activation=(Va/Vo−1)×100

| SMILES | activation at 10 µM [1] | EC50 (GK activation) | Emax | % Activation at 10 uM [1] | % Max Activation | EC50 (1 mM ATP, room temperature) | activation at 10 µM (compound at 10 uM, 1 mM ATP, room temperature) |
| --- | --- | --- | --- | --- | --- | --- | --- |
| CC1Cc2c(cc(Oc3ccc(S(C)(=O)=O)cc3)cc2C(=O)Nc2ccccn2)O1 (stereo not drawn) [Example 1, 6-(4-Methanesulfonyl-phenoxy)-2-methyl-2,3-dihydrobenzofuran-4-carboxylic acid pyridin-2-ylamide] | 101% | 8.7 µM | 144% |  |  |  |  |
| COCC1Cc2c(Oc3ccc(C(=O)N(C)C)c(F)c3)cc(C(=O)Nc3ccn(C)n3)cc2O1 (single isomer, unassigned; (+)) [Example 207, (+)-4-(4-Dimethylcarbamoyl-3-fluoro-phenoxy)-2-methoxymethyl-2,3-dihydro-benzofuran-6-carboxylic acid (1-methyl-1H-pyrazol-3-yl)-amide] |  | 0.95 µM |  | 127% | 142% |  |  |
| Cn1ccc(NC(=O)c2cc(Oc3ccc(C#N)cc3F)c3c(c2)OC(C)(C)C3)n1 [Example 31, 4-(4-Cyano-2-fluoro-phenoxy)-2,2-dimethyl-2,3-dihydro-benzofuran-6-carbo-xylic acid(1-methyl-1H-pyrazol-3-yl)-amide] | 135% | 2.1 µM | 153% |  |  |  |  |
| Cc1ccc(NC(=O)c2cc(Oc3ccc(S(C)(=O)=O)cc3)c3ocnc3c2)nc1 [Example 367, N-(5-methylpyridin-2-yl)-7-[4-(methylsulfonyl)phenoxy]-1,3-benzoxazole-5-carboxamide] | 47% | 5.8 µM | 59% |  |  |  |  |
| CN(C)C(=O)c1ccc(Oc2cc(C(=O)Nc3ccn(C)n3)cc3ccoc23)cc1 [Example 334, 7-{4-[(Dimethylamino)carbonyl]phenoxy}-N-(1-methyl-1H-pyrazol-3-yl)-1-benzofuran-5-carboxamide] | 35% |  |  |  |  |  |  |
| Cc1ccc(NC(=O)c2cc(OC(C)C)cc3oc(C(=O)N4CCC4)cc23)nc1 [Example 349, 2-(Azetidine-1-carbonyl)-6-isopropoxy-N-(5-methylpyridin-2-yl)benzofuran-4-carboxamide] | -32.1% |  |  |  |  |  |  |
| Cn1ccc(NC(=O)c2cc(Oc3ccc(C(=O)NC4CCC4)c(F)c3)c3c(c2)OC(C)(C)C3)n1 [Example 74, 4-(4-Cyclobutylcarbamoyl-3-fluoro-phenoxy)-2,2-dimethyl-2,3-dihydro-benzofuran-6-carboxylic acid(1-methyl-1H-pyrazol-3-yl)-amide] | 285% | 0.54 µM | 258% |  |  |  |  |
| Cc1cc2c(Oc3ccc(S(C)(=O)=O)cn3)cc(C(=O)Nc3cnc(N(C)C)cn3)cc2o1 [Example 280, N[5-(Dimethylamino)pyrazin-2-yl]-2-methyl-4-{[5-(methylsulfonyl)pyridin-2-yl]oxy}-1-benzofuran-6-carboxamide] | 130% | 2.4 µM | 148% |  |  |  |  |
| Cc1cc2cc(Oc3ccc(S(C)(=O)=O)cc3)cc(C(=O)Nc3ccccn3)c2o1 [Example 5, 5-(4-Methanesulfonyl-phenoxy)-2-methyl-benzofuran-7-carboxylic acid pyridin-2-ylamide] | -6.3% |  |  |  |  |  |  |
| C[C@@H](Cc1ccccc1)Oc1cc(C(=O)Nc2ccn(C)n2)cc2ccoc12 [Example 336, 7-[(1S)-1-Methyl-2-phenylethoxy]-N-(1-methyl-1H-pyrazol-3-yl)-1-benzofuran-5-carboxamide] | 8.4% |  |  |  |  |  |  |
| Cn1ccc(NC(=O)c2cc(Oc3ccc(S(C)(=O)=O)cc3)c3c(c2)OC(C)(CO)C3)n1 (stereo not drawn) [Example 227, 2-Hydroxymethyl-4-(4-methanesulfonyl-phenoxy)-2-methyl-2,3-dihydro-benzofuran-6-carboxylic acid (1-methyl-1H-pyrazol-3-yl)-amide] | 165% | 0.69 µM | 184% |  |  |  |  |
| CC1Cc2c(Oc3ccc(S(C)(=O)=O)cc3)cc(C(=O)Nc3ccn(C)n3)cc2O1 (single isomer, unassigned; (+)) [Example 13, (+)4-(4-Methanesulfonyl-phenoxy)-2-methyl-2,3-dihydro-benzofuran-6-carboxylic acid(1-methyl-1H-pyrazol-3-yl)-amide] |  | 1.8 µM |  | 182% | 196% |  |  |
| COc1cnc(NC(=O)c2cc(Oc3ccc(S(=O)(=O)N(C)C)c(F)c3)c3cc(C)oc3c2)cn1 [Example 307, 4-{4-[(Dimethylamino)sulfonyl]-3-fluorophenoxy}-N-(5-methoxypyrazin-2-yl)-2-methyl-1-benzofuran-6-carboxamide] | 153% | 0.4 µM | 156% |  |  |  |  |
| Cn1ccc(NC(=O)c2cc(Oc3ccc(S(C)(=O)=O)cc3F)c3c(c2)OC(C)(C)C3)n1 [Example 121, 4-(2-Fluoro-4-methanesulfonyl-phenoxy)-2,2-dimethyl-2,3-dihydro-benzofuran-6-carboxylic acid (1-methyl-1H-pyrazol-3-yl)-amide] | 124% | 0.5 µM | 152% |  |  |  |  |
| Cn1ccc(NC(=O)c2cc(OCC(=O)c3ccc(CO)cc3)c3c(c2)OC(C)(C)C3)n1 [Example 97, 4-[2-(4-Hydroxymethyl-phenyl)-2-oxo-ethoxy]-2,2-dimethyl-2,3-dihydro-benzofuran-6-carboxylic acid (1-methyl-1H-pyrazol-3-yl)-amide] | 131% | 3.4 µM | 123% |  |  |  |  |
| CC(C)CN1CCc2c(Oc3ccc(C(=O)N(C)C)c(F)c3)cc(C(=O)Nc3ccn(C)n3)cc2C1=O [Example 392, 5-(4-(Dimethylcarbamoyl)-3-fluorophenoxy)-2-isobutyl-N-(1-methyl-1H-pyrazol-3-yl)-1-oxo-1,2,3,4-tetrahydroisoquinoline-7-carboxamide] |  |  |  |  |  | > 10 µM | 48.6% |

Continued by falling EC50 (GK activation), values first:

| activation at 10 µM [1] | EC50 (GK activation) | Emax | % Activation at 10 uM [1] | % Max Activation | EC50 (1 mM ATP, room temperature) | activation at 10 µM (compound at 10 uM, 1 mM ATP, room temperature) | SMILES |
| --- | --- | --- | --- | --- | --- | --- | --- |
| 218% | 0.34 µM | 224% |  |  |  |  | CN(C)S(=O)(=O)c1cc(F)c(Oc2cc(C(=O)Nc3cnn(C)n3)cc3c2CC(C)(C)O3)cc1F [Example 138, 4-(4-Dimethylsulfamoyl-2,5-difluoro-phenoxy)-2,2-dimethyl-2,3-dihydro-benzofuran-6-carboxylic acid (2-methyl-2H-[1,2,3]triazol-4-yl)-amide] |
| 47.4% | 0.32 µM | 56% |  |  |  |  | Cc1cc2cc(C(=O)Nc3ccn(C)n3)cc(Oc3ccc(C(=O)N(C)C)cc3)c2s1 [Example 331, 7-{4-[(Dimethylamino)carbonyl]phenoxy}-2-methyl-N-(1-methyl-1H-pyrazol-3-yl)-1-benzothiophene-5-carboxamide] |
| 193% | 0.26 µM | 189% |  |  |  |  | Cn1ccc(NC(=O)c2cc(Oc3ccc(C(=O)NCCF)c(F)c3)c3c(c2)OC(C)(C)C3)n1 [Example 75, 4-[3-Fluoro-4-(2-fluoro-ethylcarbamoyl)-phenoxy]-2,2-dimethyl-2,3-dihydro-benzofuran-6-carboxylic acid(1-methyl-1H-pyrazol-3-yl)-amide] |
| 164% | 0.21 µM | 177% |  |  |  |  | Cn1ccc(NC(=O)c2cc(Oc3ccc(C(=O)N4CCC4)cc3F)c3c(c2)OC(C)(C)C3)n1 [Example 32, 4-[4-(Azetidine-1-carbonyl)-2-fluoro-phenoxy]-2,2-dimethyl-2,3-dihydro-benzo-furan-6-carboxylic acid(1-methyl-1H-pyrazol-3-yl)-amide] |
| 308% | 0.12 µM | 293% |  |  |  |  | CCS(=O)(=O)c1ccc(Oc2cc(C(=O)Nc3cnn(C)n3)cc3c2CC(C)(C)O3)cc1 [Example 133, 4-(4-Ethanesulfonyl-phenoxy)-2,2-dimethyl-2,3-dihydro-benzofuran-6-carboxylic acid (2-methyl-2H-[1,2,3]triazol-4-yl)-amide] |
| 110% | 0.073 µM | 112% |  |  |  |  | Cc1ccc(NC(=O)c2cc(Oc3ccc(S(C)(=O)=O)c(F)c3)c3c(c2)OC(C)(C)C3)nc1 [Example 116, 4-(3-Fluoro-4-methanesulfonyl-phenoxy)-2,2-dimethyl-2,3-dihydro-benzofuran-6-carboxylic acid (5-methyl-pyridin-2-yl)-amide] |
| 181% | 0.046 µM | 162% |  |  |  |  | Cn1ccc(NC(=O)c2cc(Oc3ccc(S(=O)(=O)N4CCC4)cc3)c3c(c2)OC(C)(C)C3)n1 [Example 125, 4-[4-(Azetidine-1-sulfonyl)-phenoxy]-2,2-dimethyl-2,3-dihydro-benzofuran-6-carboxylic acid (1-methyl-1H-pyrazol-3-yl)-amide] |
| 156% | 0.038 µM | 113% |  |  |  |  | Cc1ccc(NC(=O)c2cc(Oc3ccc(S(=O)(=O)N4CCC4)cc3)c3c(c2)OC(C)(C)C3)nc1 [Example 124, 4-[4-(Azetidine-1-sulfonyl)-phenoxy]-2,2-dimethyl-2,3-dihydro-benzofuran-6-carboxylic acid (5-methyl-pyridin-2-yl)-amide] |
